# Source: US20090118286A1, “Heterobicyclic Acrylamides” (Bayer Cropscience AG, priority 2005, published 2009)
# Where two headings read alike, the source gives them in different places.
# Experiments:
# Sphaerotheca fuliginea = assay: Sphaerotheca test (cucumber)/protective; type: in vivo; settings: application rate 500 ppm, protective, evaluation 7 days after inoculation
# Description: [table] To produce a suitable preparation of active compound, 1 part by weight of active compound is mixed with the stated amounts of solvent and emulsifier, and the concentrate is diluted with water to the desired concentration. To test for protective activity, young cucumber plants are sprayed with the preparation of active compound at the stated application rate. 1 day after the treatment, the plants are inoculated with a spore suspension of Sphaerotheca fuliginea. The plants are then placed in a greenhouse at 70% relative atmospheric humidity and a temperature of 23° C. Evaluation is carried out 7 days after the inoculation. 0% means an efficacy which corresponds to that of the control, whereas an efficacy of 100% means that no infection is observed.
# [1] = log P determination by HPLC (EEC Directive 79/831 Annex V.A8, gradient method); type: physicochemical; settings: HPLC, gradient method, acetonitrile/0.1% strength aqueous phosphoric acid or formic acid
# [2] = test system: caterpillars of the army worm (Spodoptera frugiperda); assay: Spodoptera frugiperda test, SPODFR spray treatment; type: in vivo; settings: foliar, 168 h, 500 g a. i./ha, spray treatment of maize leaf discs, 7 d, read-out: % 7 d (effect in %, caterpillars killed)
# Description: (§1) [table] To produce a suitable preparation of active compound, 1 part by weight of active compound is mixed with the stated amounts of solvents and emulsifier, and the concentrate is diluted with emulsifier-containing water to the desired concentration. Discs of maize leaves (Zea mays) are sprayed with a preparation of active compound of the desired concentration and, after drying, populated with caterpillars of the army worm (Spodoptera frugiperda). After the desired period of time, the effect in % is determined. 100% means that all caterpillars have been killed; 0% means that none of the caterpillars have been killed.
# [3] = test system: larvae of the mustard beetle (Phaedon cochleariae); assay: Phaedon test, PHAECO spray treatment; type: in vivo; settings: foliar, 168 h, 500 g a. i./ha, spray treatment of Chinese cabbage leaf discs, 7 d, read-out: % 7 d (effect in %, beetle larvae killed)
# Description: as §1, with “of Chinese cabbage” for “of maize”, “leaves (Brassica pekinensis)” for “leaves (Zea mays)”, “with larvae” for “with caterpillars”, “the mustard beetle (Phaedon cochleariae).” for “the army worm (Spodoptera frugiperda).”, “all beetle larvae” for “all caterpillars”, “the beetle larvae” for “the caterpillars”
# Botrytis cinerea = assay: Botrytis test (bean)/protective; type: in vivo; settings: application rate 500 ppm, protective, evaluation 2 days after inoculation
# Description: [table] To produce a suitable preparation of active compound, 1 part by weight of active compound is mixed with the stated amounts of solvents and emulsifier, and the concentrate is diluted with water to the desired concentration. To test for protective activity, young plants are sprayed with the preparation of active compound at the stated application rate. After the spray coating has dried on, 2 small pieces of agar colonized by Botrytis cinerea are placed onto each leaf. The inoculated plants are placed in a dark chamber at about 20° C. and 100% relative atmospheric humidity. 2 days after the inoculation, the size of the infected areas on the leaves is evaluated. 0% means an efficacy which corresponds to that of the control, whereas an efficacy of 100% means that no infection is observed.
Compound,chromatographic logP ([1]; read-out: Physical data (logP)),chromatographic logP ([1]; read-out: Physical data: logP),Efficacy in % (Sphaerotheca fuliginea) [%],pest or weed control at 500 g/ha [2] [%],pest or weed control at 500 g/ha [3] [%],Efficacy in % (Botrytis cinerea) [%]
C=CCN(C)C(=O)/C=C/c1c(-c2ccc(Cl)cc2)nc2sc(C(F)(F)F)nn12 [Example 0067],3.95,,90,,,
CCN(CC)C(=O)/C=C/c1c(-c2ccccc2)nc2sc(C(F)(F)F)nn12 [Example 0912],,,95,,,93
CC(C)CN(C)C(=O)/C=C/c1c(-c2ccccc2)nc2sc(C(F)(F)F)nn12 [Example 0913],,,90,,,

# Further lines, with some results ahead:
chromatographic logP ([1]; read-out: Physical data (logP)),chromatographic logP ([1]; read-out: Physical data: logP),Compound,Efficacy in % (Sphaerotheca fuliginea) [%],pest or weed control at 500 g/ha [2] [%],pest or weed control at 500 g/ha [3] [%],Efficacy in % (Botrytis cinerea) [%]
,3.36,CC(C)NC(=O)/C=C/c1c(-c2ccccc2Cl)nc2sc(C(F)(F)Cl)nn12 [Example 0724],,100,100,
,3.07,O=C(/C=C/c1c(-c2ccccc2Cl)nc2sc(C(F)(F)Cl)nn12)NC1CC1 [Example 0728],,100,100,
,4.06,CCCC(C)NC(=O)/C=C/c1c(-c2ccccc2Cl)nc2sc(C(F)(F)Cl)nn12 (centres unmarked) [Example 0734],,100,100,
